In article PMC9686989, “Exploration of Molecular Structure, DFT Calculations, and Antioxidant Activity of a Hydrazone Derivative” (Antioxidants, 2022):

Experiments:
[1] = DPPH radical scavenging assay; details: DPPH in methanol, 30 min in the dark, absorbance at 517 nm, triplicate
Procedure: (§1) The antioxidant activity of compound 2 was measured using ABTS antioxidant assay and DPPH radical scavenging assay using ascorbic acid and quercetin as standard compounds. The antioxidant activity of compound 1 was not determined here, as it was isolated as a by-product in trace amounts. Furthermore, this compound is reported, and thus, it was believed unnecessary to pursue its antioxidant capacity.
The 100 µM DPPH stock solution was prepared in absolute methanol. The 2.0 mM stock solutions of compound 2 and the reference standards ascorbic acids and quercetin were also prepared in absolute methanol. Then, these solutions were diluted with methanol to 1000, 500, 250, 100, 50, 25, 12.5, 6.25, 3.13, 1.56, 0.781, 0.391, 0.195, 0.0977, 0.0488, 0.0244, and 0.0122 µM solutions. Afterwards, 0.7 mL of the DPPH solution and 0.7 mL of solutions of compound 2 or standard materials prepared above were mixed in a test tube and kept in the dark for 30 min. After 30 min incubation, the UV absorption at 517 nm was measured. All experiments were performed in triplicate. The radical scavenging rates were obtained from these UV absorption data, and the resulting IC50 values were calculated using Origin 8. Percentage (%) of DPPH radical scavenging = [(A0 − A1)/A0] × 100(2) where A0 was the absorbance of the control, and A1 was the absorbance of the treated sample.

[2] = ABTS antioxidant assay (radical scavenging); details: radical cation ABTS•+ in methanol, 60 min in the dark, absorbance at 745 nm, triplicate
Procedure: as §1
Equal amounts of 7 mM ABTS (2,2′-azino-bis(3-ethylbenzothiazoline-6-sulphonic acid)) stock solution and 2.45 mM potassium persulfate stock solution were mixed and stored at 0 °C for 12 h in the dark to produce the radical cation ABTS^•+. The prepared radical cation ABTS^•+ solution was diluted with methanol so that the UV absorption value was below 1.000 at 745 nm. The compound 2 and reference standards, including ascorbic acid and quercetin, were dissolved in methanol to obtain 2000 µM stock solutions. Then, these solutions were diluted with methanol to 1000, 500, 250, 125, 62.5, 31.3, 15.6, 7.81, 3.91, 1.95, 0.977, 0.488, 0.244, 0.122, and 0.0610 µM solutions. Then, 0.9 mL of the ABTS^•+ solution and 0.1 mL of solutions of compound 2 or standard materials prepared above were mixed in a test tube and kept in the dark for 60 min. After 60 min incubation, the UV absorption at 745 nm was measured. All experiments were performed in triplicate. The radical scavenging rates were obtained from these UV absorption data, and the resulting IC50 values were calculated using Origin 8 (Northampton, MA, USA). Percentage (%) of ABTS radical scavenging = [(A0 − A1)/A0] × 100(1) where A0 was the absorbance of the control, and A1 was the absorbance of the treated sample.

A549 cells = experiment: Cell cytotoxicity assay (MTT); assay type: cell-based
Procedure: The A549 cells ([…]) were used in the cytotoxicity assay (MTT (3-(4,5-dimethylthiazol-2-yl)-2,5-diphenyltetrazolium bromide) assay) of compound 2. The A549 cells were grown in an incubator at 37 °C and 5% CO2 using DMEM media containing 2 mM glutamine and 10% FBS. Cells were trypsinized for seeding at 70–90% of cell confluency. About 7000 A549 cells per well were seeded in 96-well plates and incubated for 24 h at 37 °C in the presence of 5% CO2. Then, the media was replaced with the media containing compound 2 at various concentrations, including 0.1, 10, 25, and 50 µM, and incubated for another 24 h. Dimethyl sulfoxide (DMSO) was used as a vehicle. […] After 24 h incubation, the media was replaced with 200 µL of fresh media containing MTT solution and incubated for four hours at 37 °C. The absorbance was recorded at 570 nm to evaluate the cell viability. Each experiment was executed three times. Origin software was used for the data analysis.

SMILES	IC50 [1] [µM]	IC50 [2] [µM]	decrease in cell growth compared to the control (A549 cells; 24 h treatment, 50 µM, MTT, DMSO control) [%]	cytotoxicity (cell death) (A549 cells; 24 h treatment, 0.1–25 µM, MTT, DMSO control)	cell cytotoxicity (A549 cells; at 25 µM)	cytotoxicity (A549 cells; below 25 µM)
O=c1c(O)c(-c2ccc(O)c(O)c2)oc2cc(O)cc(O)c12 [Quercetin, quercetin]	4.02 ± 0.058	3.57 ± 0.54				
O=C1O[C@H]([C@@H](O)CO)C(O)=C1O [Ascorbic acid, ascorbic acid]	28.7 ± 0.65	13.2 ± 0.45				
C/C(=N\N=C(/C)c1ccc(O)cc1O)c1ccc(O)cc1O [Compound 2, 4,4′-((1E,1′E)-hydrazine-1,2-diylidenebis(ethan-1-yl-1-ylidene))bis(benzene-1,3-diol)]	81.06 ± 0.72	4.3 ± 0.21	~40	did not show significant cell death	did not show any cell cytotoxicity	almost no cytotoxicity
